Assay results: the supplement of paper PMC13380429

Assays:
Conditions in all cases: 72 h
HepG2 [1] = assay: cell viability relative to DMSO; higher = less toxic
Vero E6 [2] = assay: as above
Caco-2 [3] = assay: as above
Calu-3 [4] = assay: as above
U2OS [5] = assay: as above
HepG2 [6] = assay: relative viability EC50 (midpoint between 100% and the lowest measured viability); higher = less toxic
Vero E6 [7] = assay: as above
Caco-2 [8] = assay: as above
Calu-3 [9] = assay: as above
U2OS [10] = assay: as above
HepG2 [11] = assay: drug sensitivity score (DSS) for viability; higher = more toxic; extreme values may be limits of the assay
Vero E6 [12] = assay: as above
Caco-2 [13] = assay: as above
Calu-3 [14] = assay: as above
U2OS [15] = assay: as above

Row | SMILES | cell viability (HepG2 [1]; 1 nM) [%] | cell viability (HepG2 [1]; 10 nM) [%] | cell viability (HepG2 [1]; 100 nM) [%] | cell viability (HepG2 [1]; 1000 nM) [%] | cell viability (HepG2 [1]; 10000 nM) [%] | cell viability (Vero E6 [2]; 1 nM) [%] | cell viability (Vero E6 [2]; 10 nM) [%] | cell viability (Vero E6 [2]; 100 nM) [%] | cell viability (Vero E6 [2]; 1000 nM) [%] | cell viability (Vero E6 [2]; 10000 nM) [%] | cell viability (Caco-2 [3]; 1 nM) [%] | cell viability (Caco-2 [3]; 10 nM) [%] | cell viability (Caco-2 [3]; 100 nM) [%] | cell viability (Caco-2 [3]; 1000 nM) [%] | cell viability (Caco-2 [3]; 10000 nM) [%] | cell viability (Calu-3 [4]; 1 nM) [%] | cell viability (Calu-3 [4]; 10 nM) [%] | cell viability (Calu-3 [4]; 100 nM) [%] | cell viability (Calu-3 [4]; 1000 nM) [%] | cell viability (Calu-3 [4]; 10000 nM) [%] | cell viability (U2OS [5]; 1 nM) [%] | cell viability (U2OS [5]; 10 nM) [%] | cell viability (U2OS [5]; 100 nM) [%] | cell viability (U2OS [5]; 1000 nM) [%] | cell viability (U2OS [5]; 10000 nM) [%] | relative viability EC50 (HepG2 [6]) [µM] | relative viability EC50 (Vero E6 [7]) [µM] | relative viability EC50 (Caco-2 [8]) [µM] | relative viability EC50 (Calu-3 [9]) [µM] | relative viability EC50 (U2OS [10]) [µM] | drug sensitivity score (HepG2 [11]) | drug sensitivity score (Vero E6 [12]) | drug sensitivity score (Caco-2 [13]) | drug sensitivity score (Calu-3 [14]) | drug sensitivity score (U2OS [15])
1 | N#CCC1(n2cc(-c3ncnc4[nH]ccc34)cn2)CN(C2CCN(C(=O)c3ccnc(C(F)(F)F)c3F)CC2)C1 [itacitinib] | 95.3 | 98.9 | 95 | 96.1 | 91.6 | 100 | 96.1 | 98.3 | 100 | 98.5 | 101 | 98.6 | 97.2 | 132 | 90.1 | 111 | 104 | 101 | 93.6 | 90.4 | 98.6 | 91 | 97.5 | 95.8 | 96 | > 10 | > 10 | > 10 | > 10 | > 10 | 0 | 0 | 0 | 0 | 0
2 | NC[C@H]1O[C@H](O[C@H]2[C@H](O)[C@@H](O[C@H]3O[C@H](CO)[C@@H](O)[C@H](N)[C@H]3O)[C@H](N)C[C@@H]2N)[C@H](O)[C@@H](O)[C@@H]1O [kanamycin] | 109 | 88.9 | 88 | 96.5 | 98.5 | 109 | 106 | 99.3 | 99 | 102 | 94.3 | 93.1 | 88.1 | 89.3 | 96.1 | 100 | 104 | 101 | 114 | 95.2 | 102 | 102 | 96.1 | 98.3 | 98.2 | > 10 | > 10 | > 10 | > 10 | > 10 | 0 | 0 | 0 | 0 | 0
3 | CC(Oc1c(Cl)cccc1Cl)C1=NCCN1 (stereo not given) [lofexidine] | 90.7 | 105 | 104 | 90.7 | 100 | 101 | 101 | 95.7 | 103 | 103 | 100 | 106 | 101 | 93.8 | 95.6 | 99.3 | 108 | 87.6 | 103 | 94.6 | 103 | 106 | 100 | 100 | 99.6 | > 10 | > 10 | > 10 | > 10 | > 10 | 0 | 0 | 0 | 0 | 0
4 | O=C(NC(=O)c1c(F)cccc1F)Nc1cc(Cl)c(OC(F)(F)C(F)C(F)(F)F)cc1Cl (stereo not given) [lufenuron] | 98.6 | 94.3 | 109 | 101 | 101 | 99.2 | 108 | 98.3 | 110 | 100 | 100 | 95.1 | 93.8 | 96.8 | 95 | 95.4 | 98.9 | 92.1 | 83.2 | 95.3 | 100 | 95.1 | 96.7 | 98.4 | 99.7 | > 10 | > 10 | > 10 | > 10 | > 10 | 0 | 0 | 0 | 0 | 0
5 | CCCCN(CCCC)CC(O)c1cc(Cl)cc2c1-c1ccc(Cl)cc1/C2=C/c1ccc(Cl)cc1 (stereo not given) [lumefantrine] | 98.9 | 113 | 107 | 108 | 84.2 | 102 | 102 | 102 | 105 | 91.2 | 99.8 | 92.6 | 101 | 94.5 | 89.5 | 82.9 | 102 | 90 | 102 | 94.4 | 101 | 101 | 103 | 103 | 95.2 | > 10 | > 10 | > 10 | > 10 | > 10 | 0.1 | 0 | 0 | 0 | 0
